This passage reports Activity results from ChEMBL document CHEMBL3045721, “Fungicidal Activity of New Diphenylphosphinic Amide Derivatives” (Biosci Biotechnol Biochem, 1992).

Data set [1] has as its system Pseudoperonospora cubensis. Put plainly: Fungicidal activity against Pseudoperonospora cubensis administered through preventive foliar spraying of compound at 25 ppm 1 day before fungal inoculation on cucumber plants assessed as prevention of cucumber downy mildew measured 6 days after inoculation under greenhouse conditions. The format is functional.
The subject of data set [2] is Pseudoperonospora cubensis. Put plainly: Fungicidal activity against Pseudoperonospora cubensis administered through preventive foliar spraying of compound at 100 ppm 1 day before fungal inoculation on cucumber plants assessed as prevention of cucumber downy mildew measured 6 days after inoculation under greenhouse conditions. It is filed as functional.
Data set [3] relates to Cucumis sativus. Put plainly: Toxicity against Pseudoperonospora cubensis infected Cucumis sativus (cucumber) plants administered through preventive foliar spraying of compound at 25 to 100 ppm 1 day before fungal inoculation on cucumber plants measured 6 days after inoculation under greenhouse conditions. The format is organism-based. The settings on record: in vivo, other, 144 h.

In data set [4] the test system is Cucumis sativus. Put plainly: Toxicity against Pseudoperonospora cubensis infected Cucumis sativus (cucumber) plants administered through preventive foliar spraying of compound at 100 ppm 5 days before fungal inoculation on cucumber plants measured 6 days after inoculation under field test conditions. The format is organism-based. The settings on record: in vivo, other, 144 h.

Data set [5] concerns Pseudoperonospora cubensis. Kind of data set: Fungicidal activity against Pseudoperonospora cubensis administered through preventive foliar spraying of compound at 100 ppm 5 days before fungal inoculation on cucumber plants assessed as prevention of cucumber downy mildew measured 6 days after inoculation under field test conditions. The format is functional.

As for `O=C(CSP(=NP(=S)(c1ccccc1)c1ccccc1)(c1ccccc1)c1ccccc1)NCc1ccccc1`, the results for the Activity (in data set [1]; in data set [2]; with Cucumis sativus [3]) were 73%, 87% and “Non-toxic”, respectively.

For the compound `CCOC(=O)C(C)SP(=NP(=S)(c1ccccc1)c1ccccc1)(c1ccccc1)c1ccccc1` (stereo unspecified), the Activity in data set [1] is reported as 70%; in data set [2] it was 85%; in the data set with Cucumis sativus [3], “Non-toxic”.

Turning to `S=P(N=P(SCc1ccccc1)(c1ccccc1)c1ccccc1)(c1ccccc1)c1ccccc1`, the Activity result in the data set on Cucumis sativus [4] is listed as “Non-toxic”; in data set [1] it was 88%; in data set [2] it was 100%; in data set [5] it was 91%; in the data set with Cucumis sativus [3], “Non-toxic”.

Take `CCSP(=NP(=S)(c1ccccc1)c1ccccc1)(c1ccccc1)c1ccccc1`: the Activity in data set [1] is given as 47%; in data set [2] it was 79%; with Cucumis sativus [3], “Non-toxic”.

In the case of `CSP(=NP(=S)(c1ccccc1)c1ccccc1)(c1ccccc1)c1ccccc1`, the Activity in data set [1] is recorded as 50%; in data set [2] it was 82%; with Cucumis sativus [3] it was “Non-toxic”.

As for `O=C(CSP(=NP(=O)(c1ccccc1)c1ccccc1)(c1ccccc1)c1ccccc1)Nc1ccccc1`, the Activity in data set [1] is 75%; in data set [2], 91%; in the data set on Cucumis sativus [3] it was “Non-toxic”.

Consider `O=C(CSP(=NP(=O)(c1ccccc1)c1ccccc1)(c1ccccc1)c1ccccc1)NCc1ccccc1`, for which the Activity in data set [1] is listed as 76%; in data set [2] it was 93%; in the data set on Cucumis sativus [3], “Non-toxic”.

Turning to `CCOC(=O)C(C)SP(=NP(=O)(c1ccccc1)c1ccccc1)(c1ccccc1)c1ccccc1` (stereo unspecified), the Activity in data set [1] is given as 76%; in data set [2] it was 90%; with Cucumis sativus [3], “Non-toxic”.

Regarding `CCOC(=O)CSP(=NP(=O)(c1ccccc1)c1ccccc1)(c1ccccc1)c1ccccc1`, the Activity in data set [1] is recorded as 77%; in data set [2] it was 92%; with Cucumis sativus [3] it was “Non-toxic”.

For `N#CCSP(=NP(=O)(c1ccccc1)c1ccccc1)(c1ccccc1)c1ccccc1`, the Activity is listed as 74% in data set [1], 89% in data set [2] and “Non-toxic” in the data set with Cucumis sativus [3].

On to `O=P(N=P(SCc1ccccc1)(c1ccccc1)c1ccccc1)(c1ccccc1)c1ccccc1`, for which the Activity entry is reported as “Non-toxic” in the data set on Cucumis sativus [4]; 86% in data set [1]; 100% in data set [2]; 88% in data set [5]; “Non-toxic” in the data set on Cucumis sativus [3].

Turning to `C/C=C/CSP(=NP(=O)(c1ccccc1)c1ccccc1)(c1ccccc1)c1ccccc1`, the Activity in data set [1] is 40%; in data set [2], 79%; with Cucumis sativus [3] it was “Non-toxic”.

On to `CCSP(=NP(=O)(c1ccccc1)c1ccccc1)(c1ccccc1)c1ccccc1`, for which the figures for the Activity (in data set [1]; in data set [2]; in the data set on Cucumis sativus [3]) were 43%, 82% and “Non-toxic”, respectively.

As for `CSP(=NP(=O)(c1ccccc1)c1ccccc1)(c1ccccc1)c1ccccc1`, the Activity in data set [1] is listed as 41%; in data set [2], 80%; with Cucumis sativus [3], “Non-toxic”.
